Experimental data: patent publication US20120220577A1, “GLYCINE B ANTAGONISTS” (Merz Pharma GmbH & Co KgaA, priority 2009, published 2012)
Counter-ions that a name gives are not always drawn.

Experiments:
[1] = molecular target: NMDA receptor glycine B site (Rattus norvegicus, UniProt P35439); test: Calcium FLIPR studies, rat cortical neurons (NMDA/D-Serine induced intracellular calcium); type: cell-based; set-up: Primary neurons are prepared from cortices of embryonal rats at day 17 of pregnancy; endogenous in cells; host or cells: primary rat cortical neurons (E17, 11-13 DIV); conditions: rat cortical neurons; stimulation with 30 μM NMDA and 1 μM D-Serine; antagonist pre-incubated 10 min; read-out: NMDA-FLIPR-rCTX-NAM - IC50
Protocol: Antagonistic potencies of the test compounds are functionally evaluated using electrophysiological whole cell patch-clamp recordings and/or fluorometric intracellular Ca^2+-imaging (FLIPR) screens.
Sprague-Dawley rat embryos (E 17) are decapitated and neocortices are dissected, trypsinized and carefully triturated. The cell suspension is plated on poly-D-lysine pre-coated 96-well Plates (Greiner, Frickenhausen, Germany) at a cell density of 55.000 cells/well. The neurons are cultivated in Neurobasal media containing B27-Supplement and […] L-Glutamine (Biochrom) at 37° C. in a humidified atmosphere of 5% CO2/95% air. Medium is exchanged completely at day 4 and to 50% on day 7. At the time of experiments neurons are 11-13 days in vitro.
The increase of intracellular calcium after stimulation with 30 μM NMDA and 1 μM D-Serine is measured using the fluorometric imaging plate reader (FLIPR) and the Calcium-4-Kit (both Molecular Devices, Ismaning, Germany). Prior to addition of agonist or antagonist (5 different concentrations, n=5) the medium is aspirated and cells are washed once before loading with 150 μL of loading buffer (1 h at room temperature), consisting of Ca-4 sensitive dye reconstituted in extracellular bath solution, pH 7.3. Subsequently, plates are transferred to FLIPR to detect increases in intracellular calcium after the addition of agonist, measured as relative fluorescence units (RFU). Antagonists are pre-incubated with the cells for 10 min at room temperature before the addition of the agonist and co-agonist.
The fluorescence signal increase after addition of agonist reflects the increase of intracellular calcium. Inconsistencies in the amount of cells per well are normalised by using the spatial uniformity correction of the FLIPR software (Screenworks, Molecular Devices). The mean of replicated temporal data (n=5) is calculated and used for graphical representation. For the evaluation of the antagonistic potency, the calcium changes in response to different concentrations of antagonist are determined using an area under the curve (AUC) calculation. All responses (RFU-values) are determined as percentage of control (=maximum response at 30 μM NMDA and 1 μM D-Serine). IC50 values are calculated according the four parameter logistic equation using GraFit (Erithacus Software).

[2] = molecular target: T1, glycine binding pocket of the NMDA receptor (Rattus norvegicus, UniProt P35439); test: [3H]MDL-105,519 displacement studies (rat cortical membranes); conditions: displacement of 2 nM [3H]-MDL-105,519, rat cortical membranes; read-out: NMDA-MDL 105519-r-CTX - IC50
T1 construct: For isolation of the cell membranes, the cortices are homogenized; from tissue; host or cells: rat cerebral cortex membranes (male Sprague-Dawley)
Protocol: Anaesthetised male Sprague-Dawley rats (200-250 g, Janvier, Le Genest-Isle, France) are decapitated and their brains removed rapidly. […] For isolation of the cell membranes, the cortices are homogenized in 20 volumes of ice-cold 0.32 M sucrose (Sigma-Aldrich, Taufkirchen, Germany) using a glass-Teflon homogenizer. The homogenate is centrifuged at 1000×g for 10 minutes, the pellet is discarded and the supernatant centrifuged at 20,000×g for 20 minutes. The resulting pellet is re-suspended in 20 volumes of distilled water and centrifuged for 20 minutes at 8000×g. The supernatant and the buffy coat are then centrifuged three times (48,000×g for 20 minutes) in the presence of 50 mM Tris-HCl, pH 8.0 (assay buffer). All centrifugation steps are carried out at 4° C. After resuspension in 5 volumes of 50 mM Tris-HCl, pH 7.5, the membrane suspension is frozen rapidly at −80° C. On the day of assay, the membranes are thawed and washed four times by resuspension in 50 mM Tris-HCl, pH 7.5, and centrifugation at 48,000×g for 20 minutes. The final pellet is suspended in assay buffer. […] The final protein concentration used for our studies is 400 μg/ml.
A robotic system designed for binding assays (Tecan Deutschland GmbH, Crailsheim, Germany) is loaded with the membrane solution, solutions for bound control (buffer/DMSO 20%), unlabeled glycine (1 mM) for evaluation of non-specific binding, all compounds to be tested (at 20-fold concentrations), radioligand and respective 96-well plates.
The protein/receptor concentration is held constant whereas the amount of specific bound radioligand is determined using increasing concentrations of ligand.
Firstly, the assay plates are loaded with membrane solution and are shaken at 4° C. The mother plates are then prepared by pipetting the compounds into assay buffer/20% DMSO to obtain the desired final concentrations (dose response curve with five different concentrations, e.g. 10, 3, 1, 0.3, and 0.1 μM). After transferring radioligand into the assay plates, the compounds are added (including the bound and the non-specific binding control). The final DMSO concentration is 1%. The assay plates are incubated and shaken at 4° C. for 1 h, before the mixture is exhausted as rapidly as possible via a vacuum manifold using the Multiscreen HTS glass fibre (type B) filter plates (Millipore, Schwalbach, Germany) under a constant vacuum of 450 mbar. The membranes are washed four times with cold assay buffer ([…]). 50 μL of Ultima Gold scintillation cocktail (PerkinElmer, Rodgau-Jügesheim, Germany) is added to the wet filter plates and incubated at room temperature overnight before counting the disintegration per minutes using a liquid scintillation counter (MicroBeta, PerkinElmer, Rodgau-Jügesheim, Germany).
The residual radioactivity after displacement of the test compound (n=5) is then corrected with respect to the set controls.

Row | SMILES | melting point | IC50 [1] | IC50 [2]
1 | CNC(=O)COc1cc(CN)ccc1NC(=O)COc1cc(C(=O)O)cc2cc(Cl)cc(Cl)c12 (as salt: hydrochloride) [Example 116, 4-[(4-Aminomethyl-2-methylcarbamoylmethoxy-phenylcarbamoyl)-methoxy]-5,7-dichloro-naphthalene-2-carboxylic acid] | 233 to 235 °C |  | 
2 | NCc1cc(OCC(=O)O)ccc1NC(=O)COc1cc(C(=O)O)cc2cc(Cl)cc(Cl)c12 (as salt: trifluoroacetate) [Example 97, 4-[(2-Aminomethyl-4-carboxymethoxy-phenylcarbamoyl)-methoxy]-5,7-dichloro-naphthalene-2-carboxylic acid] | > 169 °C |  | 
3 | O=C(COc1cc(C(=O)O)cc2cc(Cl)cc(Cl)c12)Nc1cccc(Cc2nnn[nH]2)c1 [Example 90, 5,7-Dichloro-4-{[3-(1H-tetrazol-5-ylmethyl)-phenylcarbamoyl]-methoxy}naphthalene-2-carboxylic acid] |  | 2680 nM | 550 nM
4 | CNC(=O)COc1ccccc1NC(=O)COc1cc(C(=O)O)cc2cc(Cl)cc(Cl)c12 [Example 91, 5,7-Dichloro-4-[(2-methylcarbamoylmethoxy-phenylcarbamoyl)-methoxy]-naphthalene-2-carboxylic acid] |  | 10800 nM | 1270 nM
5 | O=C(COc1cc(C(=O)O)cc2cc(Cl)cc(Cl)c12)Nc1cccc(OCc2nnn[nH]2)c1 [Example 92, 5,7-Dichloro-4-{[3-(1H-tetrazol-5-ylmethoxy)-phenylcarbamoyl]-methoxy}-naphthalene-2-carboxylic acid] |  | 3840 nM | 656 nM
6 | NC(=O)COc1ccccc1NC(=O)COc1cc(C(=O)O)cc2cc(Cl)cc(Cl)c12 [Example 95, 4-[(2-Carbamoylmethoxy-phenylcarbamoyl)-methoxy]-5,7-dichloro-naphthalene-2-carboxylic acid] |  | 7170 nM | 641 nM
7 | O=C(O)c1cc(OCC(=O)N2c3ccccc3CC2c2nnn[nH]2)c2c(Cl)cc(Cl)cc2c1 (stereo not shown) [Example 99, 5,7-Dichloro-4-{2-oxo-2-[2-(1H-tetrazol-5-yl)-2,3-dihydro-indol-1-yl]-ethoxy}-naphthalene-2-carboxylic acid] |  | 5950 nM | 909 nM
8 | O=C(COc1cc(C(=O)O)cc2cc(Cl)cc(Cl)c12)Nc1ccccc1Cc1nnn[nH]1 [Example 100, 5,7-Dichloro-4-{[2-(1H-tetrazol-5-ylmethyl)-phenylcarbamoyl]-methoxy}-naphthalene-2-carboxylic acid] |  | 4100 nM | 559 nM
9 | O=C(COc1cc(C(=O)O)cc2cc(Cl)cc(Cl)c12)Nc1cccc(-c2nnn[nH]2)c1 [Example 101, 5,7-Dichloro-4-{[3-(1H-tetrazol-5-yl)-phenylcarbamoyl]-methoxy}-naphthalene-2-carboxylic acid] |  | 2270 nM | 344 nM
10 | O=C(COc1cc(C(=O)O)cc2cc(Cl)cc(Cl)c12)NCc1cccnc1 [Example 104, 5,7-Dichloro-4-{[(pyridin-3-ylmethyl)-carbamoyl]-methoxy}-naphthalene-2-carboxylic acid] |  | 1390 nM | 186 nM
11 | O=C(COc1cc(C(=O)O)cc2cc(Cl)cc(Cl)c12)NCc1ccncc1 [Example 105, 5,7-Dichloro-4-{[(pyridin-4-ylmethyl)-carbamoyl]-methoxy}-naphthalene-2-carboxylic acid] |  | 7090 nM | 1030 nM
12 | O=C(COc1cc(C(=O)O)cc2cc(Cl)cc(Cl)c12)NCc1cccc(-c2nnn[nH]2)c1 [Example 107, 5,7-Dichloro-4-{[3-(1H-tetrazol-5-yl)-benzylcarbamoyl]-methoxy}-naphthalene-2-carboxylic acid] |  | 1440 nM | 139 nM
13 | O=C(COc1cc(C(=O)O)cc2cc(Cl)cc(Cl)c12)NCc1ccccc1Cc1nnn[nH]1 [Example 118, 5,7-Dichloro-4-{[2-(1H-tetrazol-5-ylmethyl)-benzylcarbamoyl]-methoxy}-naphthalene-2-carboxylic acid] | 239 to 240 °C |  | 
14 | O=C(COc1cc(C(=O)O)cc2cc(Cl)cc(Cl)c12)NCc1cccc(Cc2nnn[nH]2)c1 [Example 119, 5,7-Dichloro-4-{[3-(1H-tetrazol-5-ylmethyl)-benzylcarbamoyl]-methoxy}-naphthalene-2-carboxylic acid] | 243 to 244 °C |  | 
15 | O=C(COc1cc(C(=O)O)cc2cc(Cl)cc(Cl)c12)NCc1ccc(Cc2nnn[nH]2)cc1 [Example 120, 5,7-Dichloro-4-{[4-(1H-tetrazol-5-ylmethyl)-benzylcarbamoyl]-methoxy}-naphthalene-2-carboxylic acid] | 247 to 248 °C |  | 
16 | O=C(O)COc1cc(CO)ccc1NC(=O)COc1cc(C(=O)O)cc2cc(Cl)cc(Cl)c12 [Example 122, 4-[(2-Carboxymethoxy-4-hydroxymethyl-phenylcarbamoyl)-methoxy]-5,7-dichloro-naphthalene-2-carboxylic acid] | 244 to 245 °C |  | 
17 | O=C(COc1cc(C(=O)O)cc2cc(Cl)cc(Cl)c12)NCc1ccc(OCc2nnn[nH]2)cc1 [Example 126, 5,7-Dichloro-4-{[4-(1H-tetrazol-5-ylmethoxy)-benzylcarbamoyl]-methoxy}-naphthalene-2-carboxylic acid] | > 236 °C (dec.) |  | 
18 | COCC(Oc1cc(C(=O)O)cc2cc(Cl)cc(Cl)c12)C(=O)Nc1ccccc1OCC(=O)O (stereo not shown) [Example 131, 4-[1-(2-Carboxymethoxy-phenylcarbamoyl)-2-methoxy-ethoxy]-5,7-dichloro-naphthalene-2-carboxylic acid] | 224 to 225 °C |  | 
19 | CN1CCc2sc(NC(=O)COc3cc(C(=O)O)cc4cc(Cl)cc(Cl)c34)nc2C1 [Example 132, 5,7-Dichloro-4-[(5-methyl-4,5,6,7-tetrahydro-thiazolo[4,5-c]pyridin-2-ylcarbamoyl)-methoxy]-naphthalene-2-carboxylic acid] | 242 to 243 °C |  | 
20 | Cc1cnc(NC(=O)COc2cc(C(=O)O)cc3cc(Cl)cc(Cl)c23)s1 [Example 133, 5,7-Dichloro-4-[(5-methyl-thiazol-2-ylcarbamoyl)-methoxy]-naphthalene-2-carboxylic acid] | > 250 °C |  | 
21 | O=C(COc1ccccc1NC(=O)COc1cc(C(=O)O)cc2cc(Cl)cc(Cl)c12)NCCO [Example 134, 5,7-Dichloro-4-({2-[(2-hydroxy-ethylcarbamoyl)-methoxy]-phenylcarbamoyl}-methoxy)-naphthalene-2-carboxylic acid] | 217 to 218 °C |  | 
